Where two headings read alike, the source gives them in different places.
Columns and labels:
plasma bilirubin levels = experiment: Lowering plasma bilirubin levels in newborn animals; type: in vivo
heme oxygenase [1] = experiment: Inhibition of splenic and hepatic heme oxygenase after injection; type: in vivo, rat; conditions: single animal; for Heme Oxygenase activity Liver: saline 2.3 ± 0.6; for Heme Oxygenase activity Spleen: saline 9.0 ± 2.4
Method: Liver were perfused in situ with ice cold 0.9% NaCl and subsequently homogenized in 3 volumes of 0.1 M potassium phosphate buffer, pH 7.4, containing 0.25 M sucrose. […] Splenic microsomes were prepared in an identical manner. The cytosolic fraction obtained from the liver of control (saline-injected) animals served as a source of bilirubin reductase for subsequent analysis of heme oxygenase activity. Assays for heme oxygenase and metalloporphyrin concentration were performed on fresh microsomes whenever possible. Otherwise, microsomal fractions were kept at liquid nitrogen temperatures until the time of assay.
The activity of heme oxygenase in tissues was determined as described by Drummond and Kappas, supra. […] Standard settings for the two metalloporphyrins examined were: […]
The rats were sacrificed at varying times after injection for measurements of hepatic and splenic heme oxygenase activity.

bilirubin levels [2] = conditions: cited from earlier work
[3] = cited from earlier work
heme oxygenase [4] = conditions: rats, cited from earlier work
bilirubin levels [5] = conditions: cited from earlier work; remark: listed apart in the source
bilirubin levels [6] = conditions: NEONATAL MONKEY; dose 24-185 umoles/kg; cited from earlier work
heme oxygenase [7] = experiment: Efficacy as heme oxygenase inhibitors (statements in words); conditions: at the same concentrations as SnPP
[8] = Toxicity of chromium porphyrin preparations; type: in vivo; conditions: aqueous: isotonic aqueous media at the same level as SnPP; liposomal: at effective dosage levels

With `C=CC1=C(C)c2cc3[n-]c(cc4[n-]c(cc5nc(cc1n2)C(C)=C5C=C)c(C)c4CCC(=O)[O-])c(CCC(=O)[O-])c3C.[H+].[H+].[Mn+2]` [MnPP, manganese protoporphyrin] the “lowering plasma bilirubin levels” value (plasma bilirubin levels) was “ineffective”.

With `C=Cc1c2[n-]c(c1C)/C=c1\[n-]/c(c(C)c1C=C)=C\c1[n-]c(c(CCC(=O)O)c1C)/C=c1\[n-]c(c(C)c1CCC(=O)O)=C2.[Sn+4]` [SnPP, tin protoporphyrin] the “Heme Oxygenase activity Liver” value (heme oxygenase [1]; 10 μm/kg IV, 16 hrs) was 0.6 nm bilirubin/hr/mg. protein, the “Heme Oxygenase activity Spleen” value (heme oxygenase [1]; 10 μm/kg IV, 16 hrs) was 3.6 nm bilirubin/hr/mg. protein and the “Heme Oxygenase activity Liver” value (heme oxygenase [1]; 10 μm/kg IV, 48 hrs) was 1.0 nm bilirubin/hr/mg. protein. For the same compound, the “Heme Oxygenase activity Spleen” value (heme oxygenase [1]; 10 μm/kg IV, 48 hrs) was 5.9 nm bilirubin/hr/mg. protein, the “Heme Oxygenase activity Liver” value (heme oxygenase [1]; 50 μm/kg IV, 16 hrs) was 0.4 nm bilirubin/hr/mg. protein and the “Heme Oxygenase activity Spleen” value (heme oxygenase [1]; 50 μm/kg IV, 16 hrs) was 5.3 nm bilirubin/hr/mg. protein. For the same compound, the “Heme Oxygenase activity Liver” value (heme oxygenase [1]; 50 μm/kg IV, 48 hrs) was 0.5 nm bilirubin/hr/mg. protein, the “Heme Oxygenase activity Spleen” value (heme oxygenase [1]; 50 μm/kg IV, 48 hrs) was 6.3 nm bilirubin/hr/mg. protein and the “BILIRUBIN/CO REDUCTION (percent)” value (bilirubin levels [2]; BILE DUCT LIGATED RAT, dose 100 umoles/kg) was 62-70%. The “BILIRUBIN/CO REDUCTION (percent)” value (bilirubin levels [2]; NEONATAL GUNN RAT, dose 50 umoles/kg) was 19%, the “BILIRUBIN/CO REDUCTION (percent)” value (bilirubin levels [2]; NEONATAL RAT/HEMATOMA, dose 65 umoles/kg) was 25% and the “BILIRUBIN/CO REDUCTION (percent)” value (bilirubin levels [2]; NORMAL ADULT RAT, dose 10-50 umoles/kg) was 24-30%. For the same compound, the “CONCENTRATION OF SnPP IN ORGAN @ 24 HOURS, MICROSOMES” value ([3]; LIVER, rats, intravenous) was 146-284 pm/mg. protein, the “CONCENTRATION OF SnPP IN ORGAN @ 24 HOURS, MICROSOMES” value ([3]; SPLEEN, rats, intravenous) was 60 -90 pm/mg. protein and the “concentration of SnPP in the spleen relative to SnPP concentration in the liver” value ([3]; rat, in vivo, iv) was “one-fourth”. The concentration ([3]; read-out: CONCENTRATION OF SnPP IN ORGAN @ 24 HOURS, HOMOGENATE, SPLEEN, rats, intravenous, Mean ± SE for 3-4 rats) was 6.5 ± 0.6 µM, the “HEME OXYGENASE ACTIVITY 24 HOURS AFTER TREATMENT” value (heme oxygenase [4]; KIDNEY, prior to treatment 1.8 ± 0.2) was 0.6 ± 0.1 nm bilirubin/hr/mg. protein and the “HEME OXYGENASE ACTIVITY 24 HOURS AFTER TREATMENT” value (heme oxygenase [4]; LIVER, prior to treatment 2.7 ± 0,3) was 0.3 ± 0.04 nm bilirubin/hr/mg. protein. For the same compound, the “HEME OXYGENASE ACTIVITY 24 HOURS AFTER TREATMENT” value (heme oxygenase [4]; SPLEEN, prior to treatment 12.4 ± 0.4) was 2.3 ± 0.3 nm bilirubin/hr/mg. protein, the “inhibition of splenic heme oxygenase” value (heme oxygenase [4]; following intravenous administration) was 50-75% and the “BILIRUBIN/CO REDUCTION (percent)” value (bilirubin levels [5]; ABO INCOMPATIBILITY-MAN, dose 0.5 umoles/kg) was 21-32%. The “BILIRUBIN/CO REDUCTION (percent)” value (bilirubin levels [5]; BILIARY CIRRHOSIS-MAN, dose 0.25-2.0 umoles/kg) was 7-23%, the “BILIRUBIN/CO REDUCTION (percent)” value (bilirubin levels [5]; GILBERT'S DISEASE-MAN, dose 0.5-1.8 umoles/kg) was 29-43% and the “BILIRUBIN/CO REDUCTION (percent)” value (bilirubin levels [5]; NORMAL ADULT-MAN, dose 1-2 umoles/kg) was 38-47%. For the same compound, the “BILIRUBIN/CO REDUCTION (percent)” value (bilirubin levels [6]) was 91%.

In the case of `C=CC1=C(C)c2cc3[n-]c(cc4nc(cc5[n-]c(cc1n2)c(C)c5C=C)C(C)=C4CCC(=O)O)c(CCC(=O)O)c3C.[Zn+2]` [ZnPP, zinc protoporphyrin], the “efficacy as heme oxygenase inhibitor relative to SnPP” value (heme oxygenase [7]) is given as “relatively ineffective” and the “BILIRUBIN/CO REDUCTION (percent)” value (bilirubin levels [2]; NORMAL ADULT RAT, dose 4-40 umoles/kg (ZnPP)) is given as 20-30%.

For chromium protoporphyrin [CrPP], the “BILIRUBIN/CO REDUCTION (percent)” value (bilirubin levels [2]; NEONATAL RAT, dose 10 umoles/kg (CrPP)) is listed as 32% and the toxicity [8] is listed as “exhibits some toxicity”.
